Data taken from the SangsterLogP compilation.

Columns and labels:
[1] = method code SF-AS, from Lembo, S.; Sasso, V.; Silipo, C.; Vittoria, A. (1983). Physicochemical properties and drug design in a set of analgesics. Farmaco [Sci], 38(10)750-761.; settings: pH 7.4

| logD [1] | logP | SMILES |
| --- | --- | --- |
| 1.49 |  | COc1ccccc1NCC(C)=O |
|  | 0.31 | CC(=O)Nc1ccccc1C(N)=O |
| 0.5 |  | N#CCNc1ccccc1C(N)=O |
| 2.33 |  | CCCCNc1ccccc1C(N)=O |
|  | 1.87 | CC(C)Nc1ccccc1C(N)=O |
| 2.41 |  | COc1ccccc1NC(=O)C(Cl)Cl |
| 2.65 |  | CC(=O)c1ccccc1NC(=O)C(Cl)Cl |
|  | 1.4 | CC(=O)Nc1ccccc1C(C)=O |
| 1.58 |  | CC(=O)c1ccccc1NCC#N |
|  | 1.51 | NC(=O)c1ccccc1NC(=O)C(Cl)Cl |
| 0.61 |  | CC(=O)CNc1ccccc1C(N)=O |
|  | 1.07 | COc1ccccc1NCCO |
|  | 1.28 | CC(=O)c1ccccc1NCCO |
| 1.3 |  | COc1ccccc1NCC#N |
| 2.85 |  | CCCCNc1ccccc1OC |
|  | 1.02 | COc1ccccc1NC(C)=O |
|  | 0.63 | COc1ccccc1NCC(N)=O |
